Series [1] concerns the target T1, CREB-binding protein/Histone acetyltransferase p300 (Homo sapiens, UniProt Q09472+Q92793). Briefly: Displacement of biotinylated ligand from recombinant His-tagged CBP/EP300 (unknown origin) measured after 10 mins by TR-FRET assay. The format is protein assay. (Time-resolved FRET reads energy transfer from a long-lived donor to a nearby acceptor.)
Series [2] deals with T2, Bromodomain-containing protein 4 (Homo sapiens, UniProt O60885). Briefly: Displacement of biotinylated ligand from recombinant His-tagged BRD4 bromodomain-1 (unknown origin) measured after 10 mins by TR-FRET assay.
Series [3] addresses T1, CREB-binding protein/Histone acetyltransferase p300. Briefly: Inhibition of Halo-tagged histone H3.3 binding to CBP/EP300 (unknown origin) expressed in HEK293 cells measured after overnight incubation by luciferase reporter gene based BRET assay. The format is cell-based. Background: In a reporter assay the amount or activity of a reporter protein is the signal.
Series [4] is described as follows: Clearance in mouse. Conditions: in vivo. The series is classed as ADME, organism-based.
Series [5] can be described thus: Oral bioavailability in mouse. The format is ADME, organism-based. Conditions: in vivo.
The nature of series [6]: Apparent permeability of the compound across apical side to basolateral side in MDCK cells at 10 uM measured after 180 mins by LC-MS/MS analysis. The series is classed as ADME, cell-based, Canis lupus familiaris. Conditions: dog.
A short description of series [7]: Drug metabolism in human liver microsomes assessed as phenyl ring oxidation at 10 uM up to 1 hr in presence of NADPH by LC-MS analysis. The format is ADME. (Microsomes from liver hold many membrane-bound enzymes, among them those of drug oxidation.)
A short description of series [8]: Drug metabolism in human liver microsomes assessed as cleavage of cyclopropylmethyl moiety at 10 uM up to 1 hr in presence of NADPH by LC-MS analysis. The series is classed as ADME.
Series [9] is described as follows: Drug metabolism in mouse liver microsomes assessed as phenyl ring oxidation at 10 uM up to 1 hr in presence of NADPH by LC-MS analysis. The series is classed as ADME.
The nature of series [10]: Drug metabolism in mouse liver microsomes assessed as cleavage of cyclopropylmethyl moiety at 10 uM up to 1 hr in presence of NADPH by LC-MS analysis. The format is ADME.
Series [11] addresses T2, Bromodomain-containing protein 4. Kind of series: Displacement of biotinylated ligand from BRD4 bromodomain-1 (unknown origin) by TR-FRET assay.
The target of series [12] is T3, CREB-binding protein (Homo sapiens, UniProt Q92793). Briefly: Displacement of biotinylated ligand from CBP (unknown origin) by TR-FRET assay.
T3 sequence (Q92793 whole entry): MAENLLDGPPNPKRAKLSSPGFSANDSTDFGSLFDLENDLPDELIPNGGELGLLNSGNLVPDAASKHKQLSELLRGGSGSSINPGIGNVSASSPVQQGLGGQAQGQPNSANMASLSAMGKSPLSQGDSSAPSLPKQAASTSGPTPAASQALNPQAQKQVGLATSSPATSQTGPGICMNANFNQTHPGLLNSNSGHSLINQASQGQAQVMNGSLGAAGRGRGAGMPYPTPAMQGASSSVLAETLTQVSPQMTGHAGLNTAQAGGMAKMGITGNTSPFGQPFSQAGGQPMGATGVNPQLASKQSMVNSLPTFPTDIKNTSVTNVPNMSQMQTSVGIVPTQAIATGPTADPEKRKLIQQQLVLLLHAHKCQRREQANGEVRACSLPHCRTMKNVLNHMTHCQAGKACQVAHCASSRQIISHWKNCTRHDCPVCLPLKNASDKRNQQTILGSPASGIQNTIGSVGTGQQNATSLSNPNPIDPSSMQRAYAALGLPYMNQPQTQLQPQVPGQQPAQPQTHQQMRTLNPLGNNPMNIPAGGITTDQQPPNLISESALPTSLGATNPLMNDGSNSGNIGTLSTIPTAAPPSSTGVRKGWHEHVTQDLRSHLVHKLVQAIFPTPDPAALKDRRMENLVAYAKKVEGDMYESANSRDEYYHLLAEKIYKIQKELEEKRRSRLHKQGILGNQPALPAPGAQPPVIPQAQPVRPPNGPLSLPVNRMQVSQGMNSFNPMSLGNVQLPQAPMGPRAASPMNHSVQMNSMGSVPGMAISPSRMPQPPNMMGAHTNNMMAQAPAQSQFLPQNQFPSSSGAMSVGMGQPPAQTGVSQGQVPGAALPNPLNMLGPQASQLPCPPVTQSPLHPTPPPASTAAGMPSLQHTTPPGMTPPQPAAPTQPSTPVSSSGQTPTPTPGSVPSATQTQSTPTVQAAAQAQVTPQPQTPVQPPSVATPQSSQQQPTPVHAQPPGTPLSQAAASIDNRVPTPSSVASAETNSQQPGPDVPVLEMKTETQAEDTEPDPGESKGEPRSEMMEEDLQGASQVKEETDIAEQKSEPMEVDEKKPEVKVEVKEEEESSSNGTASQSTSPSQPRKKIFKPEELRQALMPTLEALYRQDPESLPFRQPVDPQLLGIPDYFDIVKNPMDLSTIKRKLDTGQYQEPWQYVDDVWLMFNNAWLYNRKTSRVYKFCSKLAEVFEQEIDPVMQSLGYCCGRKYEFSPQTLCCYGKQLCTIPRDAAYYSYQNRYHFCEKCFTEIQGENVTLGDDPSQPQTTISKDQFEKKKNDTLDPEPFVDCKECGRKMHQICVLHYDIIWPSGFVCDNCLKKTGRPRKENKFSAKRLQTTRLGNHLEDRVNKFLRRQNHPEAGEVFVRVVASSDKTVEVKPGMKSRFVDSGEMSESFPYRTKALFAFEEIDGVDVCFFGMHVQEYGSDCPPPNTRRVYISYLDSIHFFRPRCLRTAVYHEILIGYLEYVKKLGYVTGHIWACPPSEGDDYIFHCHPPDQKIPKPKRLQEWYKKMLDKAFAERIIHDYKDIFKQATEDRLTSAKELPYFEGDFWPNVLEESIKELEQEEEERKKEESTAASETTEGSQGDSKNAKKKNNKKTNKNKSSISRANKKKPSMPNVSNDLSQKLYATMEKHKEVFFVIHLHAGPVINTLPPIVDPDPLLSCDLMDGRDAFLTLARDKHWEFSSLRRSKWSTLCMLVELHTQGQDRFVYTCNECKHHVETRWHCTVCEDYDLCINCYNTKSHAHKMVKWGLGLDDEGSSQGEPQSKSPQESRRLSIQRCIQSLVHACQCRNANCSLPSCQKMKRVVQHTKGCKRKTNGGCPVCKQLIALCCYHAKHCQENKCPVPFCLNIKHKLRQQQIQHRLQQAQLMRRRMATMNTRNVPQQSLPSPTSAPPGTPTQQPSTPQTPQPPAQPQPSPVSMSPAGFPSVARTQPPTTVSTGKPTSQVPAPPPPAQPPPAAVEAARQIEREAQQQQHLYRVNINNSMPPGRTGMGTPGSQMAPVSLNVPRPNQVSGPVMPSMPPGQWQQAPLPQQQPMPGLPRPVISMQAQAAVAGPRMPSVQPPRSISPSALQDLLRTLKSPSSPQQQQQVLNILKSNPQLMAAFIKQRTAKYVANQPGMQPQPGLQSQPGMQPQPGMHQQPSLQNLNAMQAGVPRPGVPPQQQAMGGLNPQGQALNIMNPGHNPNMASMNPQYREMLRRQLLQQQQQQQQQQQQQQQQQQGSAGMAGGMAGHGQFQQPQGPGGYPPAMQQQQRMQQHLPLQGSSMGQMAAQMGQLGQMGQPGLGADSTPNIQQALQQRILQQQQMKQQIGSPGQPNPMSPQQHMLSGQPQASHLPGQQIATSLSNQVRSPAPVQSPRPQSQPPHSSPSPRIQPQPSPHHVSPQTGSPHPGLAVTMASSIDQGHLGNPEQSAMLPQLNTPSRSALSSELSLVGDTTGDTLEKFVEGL
Series [13] has as its target T3, CREB-binding protein. Briefly: Inhibition of Halo-tagged histone H3.3 binding to NanoLuc luciferase conjugated CBP (unknown origin) expressed in HEK293 cells after overnight incubation by BRET assay. The series is classed as cell-based.
Series [14] has as its target T1, CREB-binding protein/Histone acetyltransferase p300. Kind of series: Inhibition of CBP/EP300 (unknown origin) assessed as reduction in MYC expression by cell based assay.
A short description of series [15]: Drug metabolism in CD-1 mouse hepatocytes assessed as glucuronidation of compound at 1 uM up to 180 mins by LC-MS/MS analysis. The format is ADME, cell-based, Hepatocyte. Conditions: 3 h.

These results are taken from ChEMBL document CHEMBL3864133, “Discovery of a Potent and Selective in Vivo Probe (GNE-272) for the Bromodomains of CBP/EP300” (J Med Chem, 2016).

pIC50: −log10 of the molar value.

Consider `CC(=O)N1CCc2[nH]nc(Nc3ccc(F)cc3)c2C1`, for which the IC50 in [1] came to 0.91 µM. Also, in [2], the pIC50 is less than 4.70.
With `CC(=O)N1CCc2c(c(Nc3cccc(C(=O)NC(C)C)c3)nn2CC2CC2)C1`, the figures for the IC50 in series [1] and in [3] were 0.03 µM and 0.96 µM, respectively. In addition, the clearance in [4] is 2.58 L/h/kg. The compound further had a bioavailability in [5] of 5%. Moreover, in series [6], the Papp A→B at 3 h, 10 µM stood at 24 nm/s.
As for `CCc1cccc(Nc2n[nH]c3c2CN(C(C)=O)CC3)c1`, the 50% inhibitory concentration (IC50) in series [1] came out at 0.19 µM. Moreover, the pIC50 in [2] is less than 4.70.
For `CC(=O)N1CCc2[nH]nc(Nc3ccccc3F)c2C1`, in [1], the IC50 stood at 1.4 µM. The negative logarithm of the IC50 (pIC50) in series [2] is less than 4.70.
As to `CC(=O)N1CCc2c(c(Nc3cccc(-c4cnn(C)c4)c3)nn2CC2CC2)C1`, the pIC50 in [2] was 5.38. For the same compound, the apical-to-basolateral permeability (Papp A→B) at 3 h, 10 µM in series [6] was 180 nm/s. In addition, the Drug metabolism entry in series [7], in series [8], in series [9] and in series [10] was “Metabolite_Detected” throughout.
In the case of `CC(=O)N1CCc2[nH]nc(Nc3cccc(C(F)(F)F)c3)c2C1`, the IC50 in series [1] came to 0.1 µM. The pIC50 in [2] was 4.74.
Taken in the same sequence, the figures for `CC(=O)N1CCc2c(c(Nc3cccc(C)c3)nn2CCC2CC2)C1` were 0.18 µM and 5.01.
As for `CC(=O)N1CCc2c(c(Nc3cccc(C)c3)nn2Cc2ccccn2)C1`, the negative logarithm of the IC50 (pIC50) in series [2] was 5.14.
`CC(=O)N1CCc2c(c(Nc3ccc(-c4cnn(C)c4)cc3)nn2C2CCOC2)C1` (single isomer, unassigned; 58): in series [2], the pIC50 is 4.96.
Still for that read-out and setting: the same measure for `CC(=O)N1CCc2c(c(Nc3cccc(-c4cnoc4)c3)nn2CC2CC2)C1`: 5.07.
Consider `CC(=O)N1CCc2c(c(Nc3cccc(C)c3)nn2Cc2ccncc2)C1`, for which, in series [2], the pIC50 is 5.23.
Regarding `CC(=O)N1CCc2c(c(Nc3cccc(-c4cn[nH]c4)c3)nn2CC2CC2)C1`, the pIC50 in series [2] is 5.34. Besides, in series [6], the apical-to-basolateral permeability (Papp A→B) at 3 h, 10 µM was 73 nm/s.
On to `COc1cccc(Nc2n[nH]c3c2CN(C(C)=O)CC3)c1`, for which the IC50 in series [1] came to 0.34 µM. For the same compound, in [2], the negative-log IC50 (pIC50) was less than 4.70.
Taken in the same sequence, the figures for `CC(=O)N1CCc2[nH]nc(Nc3ccccc3C)c2C1` were 1.2 µM and less than 4.70.
With `COC(=O)c1ccc(Nc2n[nH]c3c2CN(C(C)=O)CC3)cc1`, in [1], the IC50 is 0.14 µM. In addition, the pIC50 in [2] is less than 4.70.
For the compound `CCC(=O)N1CCc2[nH]nc(Nc3cccc(C)c3)c2C1`, in series [1], the half-inhibitory concentration (IC50) amounted to 1.4 µM. Besides, the pIC50 in series [2] is less than 4.70.
In the case of `CC(=O)N1CCc2c(c(Nc3cccc(C)c3)nn2C)C1`, the pIC50 in series [2] was less than 4.70.
As for `CC(=O)N1CCc2[nH]nc(Nc3cccc(F)c3)c2C1`, the IC50 in series [1] came to 0.43 µM. Also, in series [2], the pIC50 was less than 4.70.
Take `CCCC(=O)N1CCc2[nH]nc(Nc3cccc(C)c3)c2C1`: the IC50 in [1] is more than 5 µM. Further, in series [2], the pIC50 was less than 4.70.
With `CC(=O)N1CCc2c(c(Nc3cccc(-c4ccccc4)c3)nn2CC2CC2)C1`, the pIC50 in series [2] was 5.34. Also, in series [3], the IC50 came to 2.5 µM. The Papp A→B at 3 h, 10 µM in series [6] came to 260 nm/s.
Turning to `CCCNC(=O)c1cccc(Nc2nn(CC3CC3)c3c2CN(C(C)=O)CC3)c1`, the IC50 was 0.03 µM in [1] and 1.3 µM in series [3]. In series [2], the pIC50 is 5.24.
Regarding `CC(=O)N1CCc2c(c(Nc3cccc(-c4ccccn4)c3)nn2CC2CC2)C1`, the IC50 in series [1] turned out to be 0.03 µM; in [3], 0.56 µM. In addition, in [6], the Papp A→B at 3 h, 10 µM was found to be 150 nm/s.
Consider `COc1ccc(CCc2nc3cc(-c4c(C)noc4C)ccc3n2C[C@H](C)N2CCOCC2)cc1Cl`, for which the negative-log IC50 (pIC50) in series [11] was 5.49.
For `CCc1ccc(Nc2n[nH]c3c2CN(C(C)=O)CC3)cc1`, in series [1], the IC50 is 0.25 µM. Also, the pIC50 in series [2] is less than 4.70.
For the compound `CC(=O)N1CCc2c(c(Nc3cccc(C)c3)nn2CCO)C1`, the pIC50 in [2] is less than 4.70.
Turning to `CC(=O)N1CCc2c(c(Nc3cccc(-c4ccncc4)c3)nn2CC2CC2)C1`, in series [2], the negative logarithm of the IC50 (pIC50) was 6.06. In addition, the Papp A→B at 3 h, 10 µM in [6] was 200 nm/s.
For the compound `COCCn1nc(Nc2cccc(C)c2)c2c1CCN(C(C)=O)C2`, the pIC50 in series [2] is less than 4.70.
Regarding `CCNC(=O)c1cccc(Nc2nn(CC3CC3)c3c2CN(C(C)=O)CC3)c1`, the results for the half-inhibitory concentration (IC50) in series [1] and in series [3] were 0.04 µM and 1.5 µM, respectively. Also, the pIC50 in series [2] is 5.11.
Regarding `COCCNC(=O)c1cccc(Nc2nn(CC3CC3)c3c2CN(C(C)=O)CC3)c1`, the negative logarithm of the IC50 (pIC50) in series [2] is less than 4.70.
On to `COC(=O)c1cccc(Nc2n[nH]c3c2CN(C(C)=O)CC3)c1`, for which the concentration for half-maximal inhibition (IC50) in [1] stood at 0.11 µM. The pIC50 in series [2] is 4.74.
For `CCC(=O)N1CCOc2c(cc(-c3ccc(OC)c(OC)c3)cc2OC[C@H]2CCCN(C)C2)C1`, the pIC50 is 6.36 in [12] and less than 5.00 in [13]. In addition, the EC50 in series [14] is more than 10 µM.
For the compound `CC(=O)N1CCc2c(c(Nc3ccc(-c4cnn(C)c4)cc3)nn2C2COC2)C1`, the IC50 in series [1] was found to be 0.04 µM; in [3], 1.2 µM. For the same compound, the pIC50 in series [2] is 4.96.
As to `CCCOc1ccc(CCc2nc3cc(-c4c(C)noc4C)ccc3n2CCN2CCOCC2)cc1`, the pIC50 was 6.72 in [12], 5.54 in [11] and less than 5.00 in series [13]. Moreover, in series [14], the EC50 came to 6.6 µM.
`CC(=O)N1CCc2c(c(Nc3ccc(-c4cnn(C)c4)cc3)nn2CC2CC2)C1`: the pIC50 in series [2] was 5.19. Besides, in series [4], the clearance is 7.08 L/h/kg. In addition, the Drug metabolism result in series [15] is “Metabolite_Detected”.
`CC(=O)N1CCc2[nH]nc(Nc3ccc(C)cc3)c2C1`: the half-maximal inhibitory concentration (IC50) in series [1] was 0.3 µM. Moreover, the negative logarithm of the IC50 (pIC50) in [2] was less than 4.70.
The matching figures for `Cc1cccc(Nc2n[nH]c3c2CN(C(=O)C(F)(F)F)CC3)c1`: 4.3 µM and less than 4.70.
Regarding `CC(=O)N1CCc2c(c(Nc3cccc(-c4ccn[nH]4)c3)nn2CC2CC2)C1`, in series [2], the pIC50 is 5.42. Moreover, the Papp A→B at 3 h, 10 µM in [6] came to 63 nm/s.
For `CC(=O)N1CCc2c(c(Nc3cccc(-c4cccnc4)c3)nn2CC2CC2)C1`, the pIC50 in [2] was 5.40. Further, the Papp A→B at 3 h, 10 µM in [6] was found to be 240 nm/s.
Turning to `CC(=O)N1CCc2c(c(Nc3cccc(C)c3)nn2Cc2cccnc2)C1`, the pIC50 in series [2] was 5.25.
`CCCn1nc(Nc2cccc(C)c2)c2c1CCN(C(C)=O)C2`: the IC50 in series [1] was found to be 0.07 µM. Further, the pIC50 in series [2] is 4.85.
Taken in the same sequence, the figures for `CC(=O)N1CCc2[nH]nc(Nc3cccc(OC(F)F)c3)c2C1` were 0.16 µM and less than 4.70.
`Cc1cccc(Nc2n[nH]c3c2CN(S(C)(=O)=O)CC3)c1`: the IC50 in series [1] was more than 5 µM. In addition, the pIC50 in series [2] is less than 4.70.
`CC(=O)N1CCc2[nH]nc(Nc3cccc(C)c3)c2C1`: the IC50 in series [1] was determined as 0.34 µM. Moreover, the pIC50 in [2] was less than 4.70.
As for `CC(=O)N1CCc2c(c(Nc3ccc(-c4cnn(C)c4)cc3)nn2C2CCOC2)C1` (single isomer, unassigned; 57), the pIC50 in [2] was 5.07.
As to `CC(=O)N1CCc2c(c(Nc3cccc(-c4ccnn4C)c3)nn2CC2CC2)C1`, the pIC50 in [2] was 5.43. Moreover, the apparent permeability from apical to basolateral (Papp A→B) at 3 h, 10 µM in [6] stood at 150 nm/s.
As to `CC(=O)N1CCc2c(c(Nc3cccc(C)c3)nn2CC2CC2)C1`, the negative logarithm of the IC50 (pIC50) in series [2] is 4.89.
Turning to `Cc1cccc(Nc2n[nH]c3c2CN(C(=O)C2CC2)CC3)c1`, the IC50 in [1] worked out at 4.1 µM. In addition, the pIC50 in series [2] is less than 4.70.

As usually defined, the IC50 is the concentration that inhibits the measured activity by half. In general, pIC50 refers to −log10 of the IC50, conventionally taken in molar units. Usually clearance stands for the volume of plasma or blood freed of the substance per unit of time. Lower therefore signals inefficient removal. The term bioavailability denotes the share of a dose that reaches the circulation, judged against a reference dose that is usually intravenous. A lower bioavailability goes with little systemic uptake. A word on the Papp A→B: it is how fast a substance crosses the layer from the apical side. The EC50 is the concentration giving half of the maximal effect.
